Values quoted from earlier work in patent publication US5977101A, “Benzimidazoles/Imidazoles Linked to a Fibrinogen Receptor Antagonist Template Having Vitronectin Receptor Antagonist Activity” (SmithKline Beecham Corporation, priority 1996, dated 1999).

How the values were obtained:
[1] = test system: osteoclasts; details: Sato et al. 1990; Bertolini et al.
[2] = test system: bone resorption; details: Sato et al., J. Cell Biol. 1990
[3] = test system: bone resorption; details: rat; Fisher et al., Endocrinology 1993

Row | Substance | inhibition of attachment of osteoclasts to bone [1] | inhibition of bone resorption in tissue culture [2] | inhibition of bone resorption in vivo [3]
1 | cylco-S,S-N^α -acetyl-cysteinyl-N^α -methyl-argininyl-glycyl-aspartyl-penicillamine | inhibits | – | –
2 | echistatin | inhibits | potent inhibitor | inhibits
